Laboratory results from patent US10299999B2, “Flavour composition comprising menthol and menthane carboxamides” (Givaudan, S.A., priority 2011, dated 2019).

Assay: Toothpaste sensory panel: flavours A-C at 1% in silica toothpaste base, scored 0-10 for cooling, tingling, freshness and overall preference
Format: in vivo, naive volunteers
Settings: low levels replacing high levels of menthol in a toothpaste flavour
Experimental: The Flavours were each incorporated into a standard silica toothpaste base at 1%:
All three toothpastes were coded and given to 37 naive volunteers. The volunteers were asked to brush the teeth for 30 seconds and score each toothpaste (0-10 scale) for cooling, tingling and freshness at each of six time points: 0 minutes, 5 minutes, 10 minutes, 20 minutes, 30 minutes and 60 minutes. At the end of the 60 minutes, they were also asked for their overall preference scores (0-10 scale).

For `CC(C)[C@@H]1CC[C@@H](C)C[C@H]1C(=O)Nc1ccc(CC#N)cc1` (stereo in doubt) [Evercool 180, N-(4-cyanomethylphenyl) p-menthanecarboxamide], the “sensorial benefits compared with the flavour with the high levels of menthol” value was “superior sensorial benefits”.
